Data on 31 compounds can be found in patent US12612412B2, “Antiviral heterocyclic compounds” (Enanta Pharmaceuticals, Inc., priority 2021, dated 2026).

Like-named read-outs stand apart in the source and are kept apart here.

In experiment [1] the test system is genotype A, "Long" strain RSV. Description: RSV-A assay (CPE protection in Hep-2 cells, ATPlite readout). It counts as cell-based, Human respiratory syncytial virus (HRSV). To be noted: human respiratory syncytial virus, MOI 0.1, CPE protection. A digest of the protocol: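 ATPlite luminescence (cellular ATP) served as the measure of cell health after 5 days of infection. Hep-2 cells at 8,000 per well received duplicate 2-fold compound dilutions plus virus at MOI 0.1, and EC50 was calculated from CPE protection.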

The subject of experiment [2] is HMPV clinical isolate TN/1501/A1. Description: HMPV antiviral assay Method-B (clinical isolate TN/1501/A1 in LLC-MK2 cells, ATP-Lite readout). It counts as cell-based, Human metapneumovirus (HMPV). To be noted: human metapneumovirus, LLC-MK2, 144 h, hMPV WT1501 (clinical isolate TN/1501/A1), 6 days. An outline of the steps:
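EC50 derived by four-parameter logistic fit of percent cell health, measured by ATP-Lite luminescence and normalised to virus-only and uninfected-cell controls. Compounds run in duplicate from 10 μM top, 3-fold, 10 points. Infection: LLC-MK2 cells, MOI 0.014, 2 μg/mL final TPCK-trypsin, serum-free, 6 days at 37° C.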

The mark [3] stands for this setting: genotype A “Long” strain RSV, read-out: Human RSV-A (“Long”).
The mark [4] stands for this setting: RSV-A Long strain, read-out: Human RSV-A (“Long”) EC50.

On to `COc1cc(C(=O)NC[C@](O)(c2cc3c(c(-c4cc(F)c(F)cc4Cl)n2)OC[C@]3(C)C(N)=O)C2CC2)cc2cn(C3(F)CC3)nc12` [Example 659], for which the EC50 in experiment [1] (setting [3]) was under 200 nM; in experiment [2], under 500 nM.

With `COc1cc(C(=O)NC[C@](O)(c2cc3c(c(-c4cc(Cl)c(F)cc4F)n2)OC[C@]3(C)C(N)=O)C2CC2)cc2cc(Br)cnc12` [Example 664], the EC50 in experiment [1] (setting [3]) was under 200 nM; in experiment [2], under 500 nM.

With `COc1cc(C(=O)NC[C@](O)(c2cc3c(c(-c4ccc(F)cc4)n2)OC[C@]3(C)C(N)=O)C2CC2)cc2cc(C)nnc12` [Example 762], the EC50 in experiment [1] (setting [3]) was under 200 nM; in experiment [2] it was under 500 nM.

In the case of `COc1cc(C(=O)NC[C@](O)(c2cc3c(c(-c4ccc(F)cc4)n2)OC[C@]3(C)C(N)=O)C2CC2)cc2cc(Br)cnc12` [Example 1125], the figures for the EC50 in experiment [1] (setting [4]) and in experiment [2] were under 200 nM and under 500 nM, respectively.

In the case of `COc1cc(C(=O)NC[C@](O)(c2cc3c(c(-c4ccc(C(F)(F)F)cc4)n2)OC[C@]3(C)C(N)=O)C2CC2)cc2cn(C3CC3)nc12` [Example 793], the EC50 in experiment [1] (setting [3]) was under 200 nM; in experiment [2], under 500 nM.

As to `COc1cc(C(=O)NC[C@@](O)(c2cc3c(c(-c4cc5c(cc4Cl)OC(F)(F)O5)n2)OC[C@]3(C)C(N)=O)C2CC2)cc2cn(C3CC3)nc12` [Example 1230], the EC50 in experiment [1] (setting [4]) is over 200 nM; in experiment [2], over 500 nM.

For the compound `C[C@]1(C(N)=O)COc2c1cc([C@@](O)(CNC(=O)c1cc(Cl)c3nn(C4CC4)cc3c1)C1CC1)nc2-c1ccc(C(F)(F)F)cc1` [Example 795], the EC50 in experiment [1] (setting [3]) was under 200 nM; in experiment [2], over 500 nM.

With `C[C@]1(C(N)=O)COc2c1cc([C@@](O)(CNC(=O)c1cc(F)c3nc(N)sc3c1)C1(F)CC1)nc2-c1ccc(F)cc1` [Example 709], the EC50 in experiment [1] (setting [3]) was under 200 nM; in experiment [2] it was over 500 nM.

For the compound `COc1cc(C(=O)NC[C@](O)(c2cc3c(c(-c4ccc5c(c4)OC(F)(F)O5)n2)OC[C@]3(C)C(N)=O)C2CC2)ccc1OC1CC1` [Example 830], the results for the EC50 in experiment [1] (setting [4]) and in experiment [2] were under 200 nM and under 500 nM, respectively.

As to `COc1cc(C(=O)NC[C@](O)(c2cc3c(c(-c4cc(Cl)ccc4F)n2)OC[C@]3(C)C(N)=O)C2CC2)cc2cn(C(F)F)nc12` [Example 1188], the EC50 in experiment [1] (setting [4]) is under 200 nM; in experiment [2], under 500 nM.

With `COc1cc(C(=O)NC[C@](O)(c2cc3c(c(-c4ccc(F)cc4)n2)OC[C@@H]3C(N)=O)C(F)(F)F)cc2cn(C3CC3)nc12` [Example 653], the figures for the EC50 in experiment [1] (setting [3]) and in experiment [2] were under 200 nM and over 500 nM, respectively.

`Cc1nc2c(Cl)cc(C(=O)NC[C@](O)(c3cc4c(c(-c5ccc(F)cc5)n3)OC[C@]4(C)C(N)=O)C(F)(F)F)cc2cc1Cl` [Example 883]: the EC50 in experiment [1] (setting [4]) is under 200 nM; in experiment [2], over 500 nM.

Take `Cc1cnc2c(OC(F)F)cc(C(=O)NC[C@](O)(c3cc4c(c(-c5ccc(F)c(Cl)c5)n3)OC[C@]4(C)C(N)=O)C3CC3)cc2c1` [Example 496]: the values for the EC50 in experiment [1] (setting [3]) and in experiment [2] were under 200 nM and under 500 nM, respectively.

As to `Cc1cnc2c(OC(F)F)cc(C(=O)NC[C@](O)(c3cc4c(c(-c5ccc(F)cc5)n3)OC[C@@]4(C(N)=O)C(F)F)C3CC3)cc2c1` [Example 1027], the results for the EC50 in experiment [1] (setting [4]) and in experiment [2] were under 200 nM and under 500 nM, respectively.

In the case of `COc1cc(C(=O)NC[C@](O)(c2cc3c(c(-c4ccc(F)c(F)c4F)n2)OC[C@@]3(C(N)=O)C(F)F)C(F)(F)F)cc2cc(Cl)c(C)nc12` [Example 1041], the results for the EC50 in experiment [1] (setting [4]) and in experiment [2] were under 200 nM and under 500 nM, respectively.

With `CC[C@](O)(CNC(=O)c1cc(OC)c2nn(C3CC3)cc2c1)c1cc2c(c(-c3ccc(F)cc3)n1)OC[C@]2(C)C(N)=O` [Example 642], the EC50 was under 200 nM in experiment [1] (setting [3]) and over 500 nM in experiment [2].

Regarding `Cc1cnc2c(OC(F)F)cc(C(=O)NC[C@](O)(c3cc4c(c(-c5ccc(F)c(Cl)c5)n3)OC[C@]4(C)C(N)=O)C(F)(F)F)cc2c1` [Example 494], the EC50 in experiment [1] (setting [3]) is under 200 nM; in experiment [2] it was under 500 nM.

As for `COc1cc(C(=O)NC[C@](O)(c2cc3c(c(-c4ccc(F)c(Cl)c4)n2)OC[C@]3(C)C(N)=O)C2(F)CC2)cc2cc(Cl)c(C)nc12` [Example 719], the EC50 in experiment [1] (setting [3]) was under 200 nM; in experiment [2], under 500 nM.

As for `COc1cc(C(=O)NC[C@](O)(c2cc3c(c(-c4ccc5c(c4)OCO5)n2)OC[C@]3(C)C(N)=O)C(F)(F)F)cc2cn(C3CC3)nc12` [Example 908], the figures for the EC50 in experiment [1] (setting [4]) and in experiment [2] were under 200 nM and under 500 nM, respectively.

For `COc1cc(C(=O)NC[C@](O)(c2cc3c(c(-c4cccc(F)c4Cl)n2)OC[C@]3(C)C(N)=O)C(F)(F)F)cc2cn(C3CC3)nc12` [Example 761], the figures for the EC50 in experiment [1] (setting [3]) and in experiment [2] were under 200 nM and under 500 nM, respectively.

On to `COc1cc(C(=O)NC[C@](O)(c2cc3c(c(-c4ccc(F)c(Cl)c4F)n2)OC[C@]3(C)C(N)=O)C2CC2)cc2cc(Cl)c(C)nc12` [Example 557], for which the EC50 in experiment [1] (setting [3]) was under 200 nM; in experiment [2], under 500 nM.

For `COc1cc(C(=O)NC[C@](O)(c2cc3c(c(-c4ccc(F)c(Cl)c4)n2)OC[C@]3(C(N)=O)C(F)F)C2CC2)cc2cn(C3CC3)nc12` [Example 1024], the EC50 in experiment [1] (setting [4]) is over 200 nM; in experiment [2], over 500 nM.

For the compound `COc1cc(C(=O)NC[C@](O)(c2cc3c(c(-c4ccc(F)c(C(F)(F)F)c4)n2)OC[C@]3(C)C(N)=O)C2CC2)cc2cc(Cl)c(C)nc12` [Example 1103], the EC50 was under 200 nM in experiment [1] (setting [4]) and under 500 nM in experiment [2].

Consider `COc1cc(C(=O)NC[C@](O)(c2cc3c(c(-c4ccc(F)c(Cl)c4F)n2)OC[C@]3(C)C(N)=O)C2CC2)cc2cc(Br)cnc12` [Example 561], for which the EC50 in experiment [1] (setting [3]) is under 200 nM; in experiment [2], under 500 nM.

For `Cc1nc2c(Cl)cc(C(=O)NC[C@](O)(c3cc4c(c(-c5ccc(F)cc5)n3)OC[C@]4(C)C(N)=O)C(F)(F)F)cc2[nH]1` [Example 487], the values for the EC50 in experiment [1] (setting [3]) and in experiment [2] were under 200 nM and over 500 nM, respectively.

With `COc1cc(C(=O)NC[C@](O)(c2nc(-c3ccc(F)c(Cl)c3F)c3c(c2F)[C@@](C)(C(N)=O)CO3)C2CC2)cc2cn(C(F)F)nc12` [Example 1161], the EC50 in experiment [1] (setting [4]) is under 200 nM; in experiment [2] it was under 500 nM.

For the compound `COc1cc(C(=O)NC[C@](O)(c2cc3c(c(-c4csc5ccccc45)n2)OC[C@]3(C)C(N)=O)C(F)(F)F)cc2cn(C3CC3)nc12` [Example 943], the results for the EC50 in experiment [1] (setting [4]) and in experiment [2] were under 200 nM and over 500 nM, respectively.

As for `COc1cc(C(=O)NC[C@](O)(c2cc3c(c(-c4ccc5c(c4)OC(F)(F)O5)n2)OC[C@]3(C)C(N)=O)C(F)(F)F)cc2sc(C)nc12` [Example 505], the EC50 in experiment [1] (setting [3]) is under 200 nM; in experiment [2], under 500 nM.

As to `C[C@]1(C(N)=O)COc2c1cc([C@@](O)(CNC(=O)c1cc(Cl)c3nn(C4CC4)cc3c1)C1CC1)nc2-c1cccc(Br)c1F` [Example 1099], the EC50 is under 200 nM in experiment [1] (setting [4]) and under 500 nM in experiment [2].

Regarding `COc1cc(C(=O)NC[C@@](O)(c2cc3c(c(-c4ccc(F)c(Br)c4F)n2)OC[C@]3(C)C(N)=O)C(F)(F)F)cc2cn(C3CC3)nc12` [Example 955], the results for the EC50 in experiment [1] (setting [4]) and in experiment [2] were under 200 nM and over 500 nM, respectively.

For `Cc1cnc2c(Cl)cc(C(=O)NC[C@](O)(c3cc4c(c(-c5ccc(F)c(Br)c5F)n3)OC[C@]4(C)C(N)=O)C3CC3)cc2c1` [Example 1084], the EC50 is under 200 nM in experiment [1] (setting [4]) and under 500 nM in experiment [2].
